“And” between values parts separate entries of the source, which are not always exact repeats. Identical values can stand only once. Toxic doses and inconclusive results are not listed.
System: BDF1 mice, P388 leukemia ip, median survival T/C
Test: NCI In Vivo Anticancer Drug Screen. Data for tumor model P388 Leukemia (intraperitoneal) in B6D2F1 (BDF1) mice
Details: endpoint: median survival time, higher = longer survival
Procedure, shortened: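 Each value expresses how treatment altered survival: treated-mouse outcome over vehicle-mouse outcome, both groups bearing the transplanted tumour.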

[1] = dose: 100.0 mg/kg/injection, schedule: Q04DX003 (ip), vehicle: saline with Tween-80
[2] = dose: 200.0 mg/kg/injection, schedule: Q04DX003 (ip), vehicle: saline with Tween-80
[3] = dose: 400.0 mg/kg/injection, schedule: Q04DX003 (ip), vehicle: saline with Tween-80
[4] = dose: 50.0 mg/kg/injection, schedule: Q01DX009 (ip), vehicle: Klucel (hydroxypropylcellulose) (HPC)
[5] = dose: 100.0 mg/kg/injection, schedule: Q01DX009 (ip), vehicle: Klucel (hydroxypropylcellulose) (HPC)
[6] = dose: 200.0 mg/kg/injection, schedule: Q01DX009 (ip), vehicle: Klucel (hydroxypropylcellulose) (HPC)
[7] = dose: 400.0 mg/kg/injection, schedule: Q01DX009 (ip), vehicle: Klucel (hydroxypropylcellulose) (HPC)
[8] = dose: 100.0 mg/kg/injection, schedule: Q04DX003 (ip), vehicle: saline
[9] = dose: 200.0 mg/kg/injection, schedule: Q04DX003 (ip), vehicle: saline
[10] = dose: 400.0 mg/kg/injection, schedule: Q04DX003 (ip), vehicle: saline
[11] = dose: 100.0 mg/kg/injection, schedule: Q01DX001 (ip), vehicle: saline with Tween-80
[12] = dose: 200.0 mg/kg/injection, schedule: Q01DX001 (ip), vehicle: saline with Tween-80
[13] = dose: 400.0 mg/kg/injection, schedule: Q01DX001 (ip), vehicle: saline with Tween-80
[14] = dose: 100.0 mg/kg/injection, schedule: Q01DX009 (ip), vehicle: saline with Tween-80
[15] = dose: 200.0 mg/kg/injection, schedule: Q01DX009 (ip), vehicle: saline with Tween-80

What does the source list for `O=C(OC(=O)c1ccc([N+](=O)[O-])cc1)c1ccc([N+](=O)[O-])cc1`?
T/C (dose: 100.0 mg/kg/injection, schedule: Q04DX003 (sc), vehicle: olive oil, sesame oil, peanut oil): 110 % of control; T/C (dose: 200.0 mg/kg/injection, schedule: Q04DX003 (sc), vehicle: olive oil, sesame oil, peanut oil): 105 % of control; T/C (dose: 400.0 mg/kg/injection, schedule: Q04DX003 (sc), vehicle: olive oil, sesame oil, peanut oil): 105 % of control

Which T/C [1] does the source give for `Nc1nc(N)c2nc(SC34CC5CC(CC(C5)C3)C4)c(N)nc2n1` here?
The T/C was 97 % of control.

What about the T/C [2] of the same molecule?
The T/C was 88 % of control.

What about the T/C [3] of the same molecule?
The T/C was 94 % of control.

How did the T/C [4] turn out when `O=NN(CCCl)C(=O)Nc1ccc2c3c(cccc13)-c1ccccc1-2` was run?
The T/C was 156 % of control and 157 % of control.

And the T/C [5]?
The T/C was 156 % of control and 157 % of control.

And the T/C [6]?
The T/C was 161 % of control and 170 % of control.

What about the T/C [7] of the same molecule?
Its T/C is 93 % of control.

Which results are given for `CCCCCCCC[N+](C)(CCCCCCCC)CCCCCCCC`?
T/C (dose: 0.12 mg/kg/injection, schedule: Q01DX009 (ip), vehicle: saline): 108 % of control; T/C (dose: 0.18 mg/kg/injection, schedule: Q01DX009 (ip), vehicle: saline): 116 % of control; T/C (dose: 0.28 mg/kg/injection, schedule: Q01DX009 (ip), vehicle: saline): 166 % of control; T/C (dose: 0.42 mg/kg/injection, schedule: Q01DX009 (ip), vehicle: saline): 95 % of control and 100 % of control; T/C (dose: 0.43 mg/kg/injection, schedule: Q01DX009 (ip), vehicle: saline): 155 % of control; T/C (dose: 0.96 mg/kg/injection, schedule: Q01DX009 (ip), vehicle: saline): 108 % of control and 121 % of control; T/C (dose: 1.0 mg/kg/injection, schedule: Q01DX009 (ip), vehicle: saline): 100 % of control; T/C (dose: 1.3 mg/kg/injection, schedule: Q01DX009 (ip), vehicle: saline): 112 % of control; T/C (dose: 2.0 mg/kg/injection, schedule: Q01DX009 (ip), vehicle: saline): 100 % of control; T/C (dose: 2.1 mg/kg/injection, schedule: Q01DX009 (ip), vehicle: saline): 120 % of control; T/C (dose: 2.32 mg/kg/injection, schedule: Q04DX003 (ip), vehicle: saline): 104 % of control; T/C (dose: 3.1 mg/kg/injection, schedule: Q01DX009 (ip), vehicle: saline): 95 % of control; T/C (dose: 4.65 mg/kg/injection, schedule: Q04DX003 (ip), vehicle: saline): 95 % of control; T/C (dose: 6.5 mg/kg/injection, schedule: Q01DX001 (ip), vehicle: saline): 100 % of control; T/C (dose: 13.0 mg/kg/injection, schedule: Q01DX001 (ip), vehicle: saline): 100 % of control

With `CCCCOC(=O)c1ccc(NC(=O)NCCC)cc1` as the molecule, how does the T/C [1] read?
Its T/C is 104 % of control.

What about the T/C [2] of the same molecule?
The T/C was 100 % of control.

What about the T/C [3] of the same molecule?
The T/C was 109 % of control.

What does the source list for `CC1=C2CC(C)(C)/C=C\C(=O)/C(C)=C\C3=C[C@H](C)C[C@]3(O2)C1=O`?
T/C (dose: 0.5 mg/kg/injection, schedule: Q01DX010 (ip), vehicle: carboxymethylcellulose (CMC)): 100 % of control; T/C (dose: 1.0 mg/kg/injection, schedule: Q01DX010 (ip), vehicle: carboxymethylcellulose (CMC)): 100 % of control; T/C (dose: 2.0 mg/kg/injection, schedule: Q01DX010 (ip), vehicle: carboxymethylcellulose (CMC)): 100 % of control; T/C (dose: 4.0 mg/kg/injection, schedule: Q01DX010 (ip), vehicle: carboxymethylcellulose (CMC)): 104 % of control; T/C (dose: 8.0 mg/kg/injection, schedule: Q01DX010 (ip), vehicle: carboxymethylcellulose (CMC)): 95 % of control

Which results are given for `Nc1c(Br)cc(Br)cc1Br`?
T/C (dose: 6.0 mg/kg/injection, schedule: Q01DX009 (ip), vehicle: Klucel (hydroxypropylcellulose) (HPC)): 110 % of control; T/C (dose: 12.0 mg/kg/injection, schedule: Q01DX009 (ip), vehicle: Klucel (hydroxypropylcellulose) (HPC)): 105 % of control; T/C (dose: 25.0 mg/kg/injection, schedule: Q01DX009 (ip), vehicle: Klucel (hydroxypropylcellulose) (HPC)): 105 % of control; T/C [5]: 105 % of control; T/C (dose: 100.0 mg/kg/injection, schedule: Q04DX003 (ip), vehicle: Klucel (hydroxypropylcellulose) (HPC)): 100 % of control; T/C [6]: 100 % of control; T/C (dose: 200.0 mg/kg/injection, schedule: Q04DX003 (ip), vehicle: Klucel (hydroxypropylcellulose) (HPC)): 95 % of control; T/C [7]: 111 % of control; T/C (dose: 400.0 mg/kg/injection, schedule: Q04DX003 (ip), vehicle: Klucel (hydroxypropylcellulose) (HPC)): 100 % of control

How did the T/C [8] turn out when `O=Cc1c[nH]c(=O)[nH]c1=O` was run?
Its T/C is 91 % of control.

What about the T/C [9] of the same molecule?
The T/C was 99 % of control.

And the T/C [10]?
Its T/C is 88 % of control.

For `O=C(/C=N/O)c1ccccc1`, which T/C (dose: 50.0 mg/kg/injection, schedule: Q04DX003 (ip), vehicle: gum acacia) is on record?
Its T/C is 100 % of control.

And the T/C (dose: 100.0 mg/kg/injection, schedule: Q04DX003 (ip), vehicle: gum acacia)?
The T/C was 96 % of control.

What about the T/C (dose: 200.0 mg/kg/injection, schedule: Q04DX003 (ip), vehicle: gum acacia) of the same molecule?
Its T/C is 96 % of control.

What does the source list for `CCOC(=O)C1=C(C)NC(C)=C(C(=O)OCC)C1`?
T/C [11]: 90 % of control; T/C [12]: 95 % of control; T/C [13]: 100 % of control

Which T/C (dose: 0.78 mg/kg/injection, schedule: Q04DX003 (ip), vehicle: other) does the source give for `FC(F)(F)c1nc2nc(Cl)c(Cl)nc2s1` here?
The T/C was 104 % of control.

And the T/C (dose: 1.56 mg/kg/injection, schedule: Q01DX009 (ip), vehicle: other)?
Its T/C is 99 % of control.

And the T/C (dose: 1.56 mg/kg/injection, schedule: Q04DX003 (ip), vehicle: other)?
Its T/C is 117 % of control.

And the T/C (dose: 3.12 mg/kg/injection, schedule: Q01DX009 (ip), vehicle: other)?
The T/C was 90 % of control.

And the T/C (dose: 3.12 mg/kg/injection, schedule: Q04DX003 (ip), vehicle: other)?
The T/C was 98 % of control.

And the T/C (dose: 6.25 mg/kg/injection, schedule: Q01DX009 (ip), vehicle: other)?
Its T/C is 90 % of control.

And the T/C (dose: 6.25 mg/kg/injection, schedule: Q04DX003 (ip), vehicle: other)?
Its T/C is 121 % of control.

And the T/C (dose: 12.5 mg/kg/injection, schedule: Q01DX009 (ip), vehicle: other)?
Its T/C is 99 % of control.

And the T/C (dose: 12.5 mg/kg/injection, schedule: Q04DX003 (ip), vehicle: other)?
Its T/C is 111 % of control.

Which results are given for `C/C(c1nc(N)nc(N)c1-c1ccc(Cl)cc1)=[N+](\C)[O-]`?
T/C [11]: 95 % of control; T/C [12]: 104 % of control; T/C [13]: 97 % of control

What does the source list for `CNC(C)COc1ccccc1` (centres undefined)?
T/C (dose: 25.0 mg/kg/injection, schedule: Q04DX003 (ip), vehicle: saline): 104 % of control; T/C (dose: 50.0 mg/kg/injection, schedule: Q04DX003 (ip), vehicle: saline): 100 % of control; T/C [8]: 90 % of control

Which results are given for `O=C1NC(=O)C(=O)N1`?
T/C (dose: 100.0 mg/kg/injection, schedule: Q01DX001 (ip), vehicle: saline): 109 % of control; T/C [14]: 100 % of control; T/C (dose: 100.0 mg/kg/injection, schedule: Q01DX009 (ip), vehicle: saline): 100 % of control; T/C [8]: 110 % of control; T/C (dose: 200.0 mg/kg/injection, schedule: Q01DX001 (ip), vehicle: saline): 100 % of control; T/C [15]: 104 % of control; T/C (dose: 200.0 mg/kg/injection, schedule: Q01DX009 (ip), vehicle: saline): 100 % of control; T/C [9]: 95 % of control; T/C (dose: 400.0 mg/kg/injection, schedule: Q01DX001 (ip), vehicle: saline): 100 % of control; T/C (dose: 400.0 mg/kg/injection, schedule: Q01DX009 (ip), vehicle: saline with Tween-80): 95 % of control; T/C (dose: 400.0 mg/kg/injection, schedule: Q01DX009 (ip), vehicle: saline): 100 % of control; T/C [10]: 120 % of control

Which T/C (dose: 50.0 mg/kg/injection, schedule: Q01DX009 (ip), vehicle: saline with Tween-80) does the source give for `CC1(C)CC(=O)C(C(c2cccc(O)c2O)C2C(=O)CC(C)(C)CC2=O)C(=O)C1` here?
The T/C was 123 % of control.

What about the T/C [14] of the same molecule?
Its T/C is 100 % of control.

And the T/C [15]?
Its T/C is 91 % of control.

Which T/C (dose: 25.0 mg/kg/injection, schedule: Q01DX009 (ip), vehicle: saline with Tween-80) does the source give for `CCCC1CC[N-]CC1.CCCC1CC[N-]CC1.[Cl][Pt+2][Cl]` here?
Its T/C is 122 % of control.

What about the T/C (dose: 44.0 mg/kg/injection, schedule: Q04DX003 (ip), vehicle: saline) of the same molecule?
The T/C was 96 % of control.

And the T/C [4]?
Its T/C is 118 % of control.

And the T/C (dose: 66.0 mg/kg/injection, schedule: Q04DX003 (ip), vehicle: saline)?
Its T/C is 116 % of control.

And the T/C [8]?
The T/C was 112 % of control.

What about the T/C (dose: 132.0 mg/kg/injection, schedule: Q04DX003 (ip), vehicle: saline with Tween-80) of the same molecule?
Its T/C is 100 % of control.

And the T/C [2]?
The T/C was 95 % of control.

What about the T/C (dose: 300.0 mg/kg/injection, schedule: Q04DX003 (ip), vehicle: Klucel (hydroxypropylcellulose) (HPC)) of the same molecule?
The T/C was 100 % of control.

— PubChem BioAssay AID328 (DTP/NCI, 2004)
